The values that follow come from patent publication US20240285627A1, “DRUG COMBINATION OF FAK INHIBITOR AND IMMUNOGENIC CELL DEATH INDUCER AND USE THEREOF” (INXMED (NANJING) CO., LTD., priority 2022, published 2024).

Several values for one entry are separate records, joined by “and”; a condition that tells them apart may be missing. Equal entries are not always repeated.

The test system of test [1] is mouse colon cancer CT26-KRAS G12C allograft tumor. The test is described as follows: In vivo pharmacodynamic study, BALB/c mouse subcutaneous allograft tumor model of CT26-KRAS G12C cells (Example 8). As to the method: Species: mice; Strain: BALB/c mice; Age and weight: 6-8 weeks old, weighing: 18-22 g; Gender: female; Quantity: 49 (excluding remaining mice after grouping); Supplier: LINGCHANG BIOTECH.
Mouse colon cancer CT26-KRAS G12C cells were cultured in monolayer in vitro. The culture conditions were RPMI1640 medium with 10% fetal bovine serum, 1% penicillin/streptomycin/amphotericin B, and 37° C. 5% CO2 incubator. Trypsin-EDTA was used twice a week for routine digestion and passage. When the cell saturation was 80%-90% and the number reached the requirements, the cells were collected, counted and inoculated.
0.1 mL (0.3×10^6 cells) of CT26-KRAS G12C cells were subcutaneously inoculated on the right back of each mouse, and grouping and drug administration began when the average tumor volume reached about 55 mm^3.
The diameter of tumor was measured three times a week with vernier caliper. The formula for calculating the tumor volume is: V=0.5×a×b^2, where a and b represent the long and short diameters of the tumor respectively.
The anti-tumor effect of the compound was evaluated by TGI (%) or relative tumor proliferation rate T/C(%). The relative tumor proliferation rate is T/C(%)=TRTV/CRTV×100% (TRTV: RTV in treatment group; CRTV: RTV in negative control group). According to the results of tumor measurement, the relative tumor volume (RTV) was calculated, and the calculation formula is RTV=Vt/V0, where V0 is the average tumor volume measured at the time of grouping and drug administration (i.e., D0), Vt is the average tumor volume measured at a certain time, and data on the same day were used for TRTV and CRTV.
TGI (%) reflects the tumor growth inhibition rate. TGI (%)=[1−(average tumor volume at the end of administration in a certain treatment group-average tumor volume at the beginning of administration in the treatment group)/(average tumor volume at the end of administration in solvent control group-average tumor volume at the beginning of administration in the solvent control group)]×100%.
Statistical analysis included the mean and standard error (SEM) of tumor volume at each time point in each group (see the specific data in Table 7). Based on the tumor volume data on the 19th day after administration, statistical analysis was performed to evaluate the differences between groups. T-test was used to analyze the comparison between two groups, and one-way ANOVA was used to analyze the comparison between three or more groups. If there was significant difference in F value, Games-Howell method was used for the test. If there was no significant difference in F value, Dunnet (2-sided) method was used for analysis. All data were analyzed by SPSS 17.0. P<0.05 was considered to have significant difference.

In test [2] the test system is Mouse colon cancer CT26 cells. The test is described as follows: Proliferation of CT26 cells, CCK8, MRTX1133 with or without IN10018 (Example 3). Format: cell-based. Conditions: 72 hours, combination group: 5 μM IN10018 added to each well. As to the method:
Mouse colon cancer CT26 cells (Insitute of Biochemistry and Cell Biology) were cultured with RPMI-1640 (Shanghai Basalmedia, classification number: L210KJ, batch number: F210916)+10% FBS (Gibco, classification number: 10099-141c, batch number: 2158737cp) and passaged twice. When the cells were in good condition, the culture solution was placed in a 96-well plate with 3000 cells/well. After the cells were spread for 24 hours, a culture medium containing MRTX1133 (SuperLan Chemical Co., Ltd., classification number: P2621928-55-8, batch number: 131005) was added. 10 drug action concentrations were set, wherein the first concentration was 30 μM, which was serially diluted 5 times, and the last concentration was a control with a drug concentration of 0. Each drug concentration was set in triplicate. At the same time, another group of cells was established with the same drug concentration as the above method. The difference was that 5 μM IN10018 was added to each well. The drugs were mixed and the mixture was cultured in a 5% CO2 incubator at 37° C. for 72 hours.
After 72 hours of drug action, the cells were observed under a microscope, and 10 μl of CCK8 detection reagent (Cellorlab, classification number: CX001M, batch number: 2571100) was added to each well. […] Then the plate was read with a microplate reader OD450 ([…]).

Where [3] appears, read: Day 19, D-1553 5 mg/kg PO QD, IN10018 25 mg/kg PO QD, INX0082 10 mg/kg IP BIW.

What is called IC50 is the midpoint of a concentration-inhibition curve.

Turning to `COc1cc(C(=O)NC2CCN(C)CC2)c(F)cc1Nc1ncc(C(F)(F)F)c(Oc2cccc3c2C(=O)N(C)C3)n1` [IN10018], in test [1] (Day 0, at grouping, Average ± SEM, n = 7), the “Tumor volume (Day 0)” value turned out to be 55 ± 3 mm^3. For the same compound, in test [1] (setting [3]), the “T/C (%) (Day 19)” value is reported as 74.7% and the “TGI (%) (Day 19)” value is on record as 23.4%. Further, the “Tumor volume (Day 19)” value in test [1] (Day 19, D-1553 5 mg/kg PO QD, IN10018 25 mg/kg PO QD, INX0082 10 mg/kg IP BIW, Average ± SEM, n = 7) was 1352 mm^3 and 1352 ± 284 mm^3. Moreover, the “anti-tumor effect compared with the solvent control group” value in test [1] (Day 19, D-1553 5 mg/kg, IN10018 25 mg/kg, INX0082 10 mg/kg) is “no anti-tumor effect”.
Consider `C#Cc1c(F)ccc2cc(O)cc(-c3ncc4c(N5CC6CCC(C5)N6)nc(OC[C@@]56CCCN5C[C@H](F)C6)nc4c3F)c12` [MRTX1133], for which, in test [2], the IC50 was determined as 280 nM.
